Conditions: Liquid, Vibrating tube method

CCCCCCO [hexan-1-ol]
Conditions | mass density [kg/m3]
293.15 K, 100 kPa | 818.6
293.15 K, 10000 kPa | 824.8
293.15 K, 20000 kPa | 830.9
293.15 K, 30000 kPa | 836.4
293.15 K, 40000 kPa | 841.6
293.15 K, 50000 kPa | 846.5
293.15 K, 60000 kPa | 851.1
293.15 K, 70000 kPa | 855.5
293.15 K, 80000 kPa | 859.8
293.15 K, 90000 kPa | 863.7
293.15 K, 100000 kPa | 867.9
293.15 K, 110000 kPa | 871.5
293.15 K, 120000 kPa | 875.2
293.15 K, 130000 kPa | 878.7
293.15 K, 140000 kPa | 882.2
303.15 K, 100 kPa | 811.5
303.15 K, 10000 kPa | 818.2
303.15 K, 20000 kPa | 824.1
303.15 K, 30000 kPa | 830
303.15 K, 40000 kPa | 835.1
303.15 K, 50000 kPa | 840.5
303.15 K, 60000 kPa | 845.3
303.15 K, 70000 kPa | 849.8
303.15 K, 80000 kPa | 854.2
303.15 K, 90000 kPa | 858.4
303.15 K, 100000 kPa | 862.4
303.15 K, 110000 kPa | 866.3
303.15 K, 120000 kPa | 870
303.15 K, 130000 kPa | 873.6
303.15 K, 140000 kPa | 877.1
313.15 K, 100 kPa | 804.2
313.15 K, 10000 kPa | 811.1
313.15 K, 20000 kPa | 817.4
313.15 K, 30000 kPa | 823.5
313.15 K, 40000 kPa | 829
313.15 K, 50000 kPa | 834.4
313.15 K, 60000 kPa | 839.4
313.15 K, 70000 kPa | 844.3
313.15 K, 80000 kPa | 848.7
313.15 K, 90000 kPa | 853.1
313.15 K, 100000 kPa | 857.1
313.15 K, 110000 kPa | 861.2
313.15 K, 120000 kPa | 865.1
313.15 K, 130000 kPa | 868.7
313.15 K, 140000 kPa | 872.5
323.15 K, 100 kPa | 797.3
323.15 K, 10000 kPa | 804.5
323.15 K, 20000 kPa | 811.2
323.15 K, 30000 kPa | 817.4
323.15 K, 40000 kPa | 823.3
323.15 K, 50000 kPa | 828.7
323.15 K, 60000 kPa | 833.8
323.15 K, 70000 kPa | 838.5
323.15 K, 80000 kPa | 843.1
323.15 K, 90000 kPa | 847.6
323.15 K, 100000 kPa | 851.8
323.15 K, 110000 kPa | 856
323.15 K, 120000 kPa | 860
323.15 K, 130000 kPa | 863.7
323.15 K, 140000 kPa | 867.3
333.15 K, 100 kPa | 789.7
333.15 K, 10000 kPa | 797.2
333.15 K, 20000 kPa | 804.3
333.15 K, 30000 kPa | 810.8
333.15 K, 40000 kPa | 817
333.15 K, 50000 kPa | 822.7
333.15 K, 60000 kPa | 828
333.15 K, 70000 kPa | 832.8
333.15 K, 80000 kPa | 837.6
333.15 K, 90000 kPa | 842.5
333.15 K, 100000 kPa | 846.8
333.15 K, 110000 kPa | 850.8
333.15 K, 120000 kPa | 854.4
333.15 K, 130000 kPa | 858.5
333.15 K, 140000 kPa | 862.2
343.15 K, 100 kPa | 781.9
343.15 K, 10000 kPa | 790.2
343.15 K, 20000 kPa | 797.6
343.15 K, 30000 kPa | 804.4
343.15 K, 40000 kPa | 810.6
343.15 K, 50000 kPa | 816.4
343.15 K, 60000 kPa | 822.1
343.15 K, 70000 kPa | 827.3
343.15 K, 80000 kPa | 832.1
343.15 K, 90000 kPa | 836.9
343.15 K, 100000 kPa | 841.4
343.15 K, 110000 kPa | 845.7
343.15 K, 120000 kPa | 849.7
343.15 K, 130000 kPa | 853.6
343.15 K, 140000 kPa | 857.5
353.15 K, 100 kPa | 773.8
353.15 K, 10000 kPa | 782.3
353.15 K, 20000 kPa | 790.1
353.15 K, 30000 kPa | 797.3
353.15 K, 40000 kPa | 803.8
353.15 K, 50000 kPa | 810
353.15 K, 60000 kPa | 815.6
353.15 K, 70000 kPa | 821
353.15 K, 80000 kPa | 826.2
353.15 K, 90000 kPa | 831.1
353.15 K, 100000 kPa | 835.6
353.15 K, 110000 kPa | 840
353.15 K, 120000 kPa | 844.3
353.15 K, 130000 kPa | 848.4
353.15 K, 140000 kPa | 852.3
363.15 K, 100 kPa | 765.5
363.15 K, 10000 kPa | 774.9
363.15 K, 20000 kPa | 783.1
363.15 K, 30000 kPa | 790.6
363.15 K, 40000 kPa | 797.5
363.15 K, 50000 kPa | 803.8
363.15 K, 60000 kPa | 809.7
363.15 K, 70000 kPa | 815.4
363.15 K, 80000 kPa | 820.6
363.15 K, 90000 kPa | 825.6
363.15 K, 100000 kPa | 830.3
363.15 K, 110000 kPa | 834.8
363.15 K, 120000 kPa | 839.2
363.15 K, 130000 kPa | 843.3
363.15 K, 140000 kPa | 847.2
373.15 K, 100 kPa | 756.9
373.15 K, 10000 kPa | 766.6
373.15 K, 20000 kPa | 775.4
373.15 K, 30000 kPa | 783.4
373.15 K, 40000 kPa | 790.4
373.15 K, 50000 kPa | 796.9
373.15 K, 60000 kPa | 803.1
373.15 K, 70000 kPa | 808.9
373.15 K, 80000 kPa | 814.2
373.15 K, 90000 kPa | 819.5
373.15 K, 100000 kPa | 824.4
373.15 K, 110000 kPa | 829.2
373.15 K, 120000 kPa | 833.3
373.15 K, 130000 kPa | 837.7
373.15 K, 140000 kPa | 841.7
383.15 K, 100 kPa | 748.2
383.15 K, 10000 kPa | 759.1
383.15 K, 20000 kPa | 767.8
383.15 K, 30000 kPa | 776.5
383.15 K, 40000 kPa | 783.5
383.15 K, 50000 kPa | 790.4
383.15 K, 60000 kPa | 796.8
383.15 K, 70000 kPa | 802.6
383.15 K, 80000 kPa | 808.3
383.15 K, 90000 kPa | 813.7
383.15 K, 100000 kPa | 818.7
383.15 K, 110000 kPa | 823.4
383.15 K, 120000 kPa | 828
383.15 K, 130000 kPa | 832.3
383.15 K, 140000 kPa | 836.5
393.15 K, 100 kPa | 739.4
393.15 K, 10000 kPa | 750.8
393.15 K, 20000 kPa | 760.5
393.15 K, 30000 kPa | 768.8
393.15 K, 40000 kPa | 777
393.15 K, 50000 kPa | 783.7
393.15 K, 60000 kPa | 790.3
393.15 K, 70000 kPa | 796.5
393.15 K, 80000 kPa | 802.5
393.15 K, 90000 kPa | 807.8
393.15 K, 100000 kPa | 813
393.15 K, 110000 kPa | 818.1
393.15 K, 120000 kPa | 822.6
393.15 K, 130000 kPa | 827.2
393.15 K, 140000 kPa | 831.5
403.15 K, 100 kPa | 730.2
403.15 K, 10000 kPa | 741.8
403.15 K, 20000 kPa | 751.9
403.15 K, 30000 kPa | 761.1
403.15 K, 40000 kPa | 769.3
403.15 K, 50000 kPa | 776.9
403.15 K, 60000 kPa | 783.7
403.15 K, 70000 kPa | 790.1
403.15 K, 80000 kPa | 796.2
403.15 K, 90000 kPa | 801.8
403.15 K, 100000 kPa | 807.2
403.15 K, 110000 kPa | 812.3
403.15 K, 120000 kPa | 817.1
403.15 K, 130000 kPa | 821.8
403.15 K, 140000 kPa | 826.5
